Source: patent US10085955B2, “Methods and compositions for treatment of demyelinating diseases” (Pathologica LLC, priority 2013, dated 2018)
Like-named read-outs stand apart in the source and are kept apart here.

Assays:
[1] = parameters: species or system DBA/1 mice; settings: male, DBA/1, mouse, in vivo
Experimental: Twenty-four male DBA/1 mice weighing 19.5-24.7 g and aged 7-9 weeks administered the test article, MGBG, as either a single bolus intravenous dose via a lateral tail vein of 1 mg/kg (Group 1, n=12) or as a single oral gavage dose of 10 mg/kg (Group 2, n=12). Each dose group consisted of 4 cohorts of 3 animals each. Group 1 was sampled at 5, 15, and 30 minutes after dosing; and 1, 2, 4, 8, and 24 hours after dosing. Group 2 was sampled at 1, 2, 4, 8, 12, 24, and 36 hours after dosing. Starting with the first time point, a new cohort was sampled at each successive time point up to the 1-hour (Group 1) or […] (Group 2) time point. The order of sampling among the cohorts was repeated for the subsequent time points (some cohorts may have been bled only once). The second bleed for each cohort was terminal. Animals were sacrificed via CO2 inhalation anesthesia after final blood collection.
The samples were centrifuged under refrigerated conditions following completion of sample collection at each interval. The resulting plasma was separated and stored frozen at approximately −70° C. until analysis. Analysis was performed by LC/MS/MS. Pharmacokinetic analyses were performed on the mean MGBG plasma concentration versus time data using the non-compartmental approach (linear trapezoidal rule for AUC calculations). The WinNonlin sparse sampling tool was used for PK calculations.
The second method used to convert the efficacious 60 mg/kg/day dose in mice to an equivalent dose in humans was based more directly on allometric scaling. Data from an MGBG pharmacokinetic study consisting of a 10 mg/kg oral dose in mice was modeled in a simulation to determine the theoretical AUCINF value for a dosing regimen of 30 mg/kg PO BID, which was 9050 h*ng/mL. Next, predicted human clearance values as determined by single- and multi-species allometric scaling were used to estimate doses likely to produce an exposure in humans (AUCINF) similar to that of the 60 mg/kg/day in mice. […] Using multi-species allometric scaling, the predicted human equivalent dose is about 4.2 mg/kg/day.

[2] = test system: carrageenan-induced paw edema and hyperalgesia; test: Carrageenan paw test for edema and hyperalgesia; assay type: in vivo, Swiss Webster mice
Source text: Injection of carrageenan subcutaneously into the hind foot (paw) of a rat or mouse induces robust inflammation and pain. The inflammatory response begins 1-2 hrs post-carrageenan injection and persists for at least five hours following inoculation. In addition, the animal's inflamed hind paw is sensitive to noxious (hyperalgesia) or innocuous (allodynia) stimuli, compared to the contralateral hind paw. Compounds can be evaluated in this model for anti-hyperalgesia and anti-inflammatory activity. […] It is possible that some compounds will affect the inflamed paw and not affect the responses of the contralateral paw.
Embodiments of the carrageenan foot edema test are performed with materials, reagents and procedures essentially as described by Winter, et al., (Proc. Soc. Exp. Biol. Med., 111, 544 (1962)). Prophylactic and therapeutic embodiments have been developed, and are known in the art. The animals are evaluated for their responsiveness to noxious (paw pinch, plantar test) or innocuous (cold plate, von Frey filaments) stimuli. In the following protocol, mice were used.
Healthy young male Swiss Webster mice in which weight variation of the mice will not exceed ±20% of the mean were used for the study. Animals were divided into four groups of forty, and each group was dosed by oral gavage with either MGBG (BID, 12 hours apart at 30 mg/kg in 5 mL/kg normal saline), dexamethasone as positive control (QD, 1 mg/kg in 5 mL/kg 0.5% methylcellulose), or saline vehicle (BID, 5 mL/kg). […]
Immediately before sub-plantar administration of carrageenan and after 2, 3, 5 and 24 hours post carrageenan, mouse paw volume was measured using the plethysmometer (Ugo Basile). The assessment of edema was expressed as the mean increase in paw volume relative to control.
Prior to sub-plantar administration of carrageenan and after 0.5, 2, 3, 5, and 24 hours post-carrageenan, the latency of withdrawal response was determined by placing mice on a hot plate analgesia meter with surface temperature maintained at 51° C. […] Paw withdrawal latency is calculated as Δt=right paw withdrawal—left paw withdrawal. […]

## CC(/C=N/NC(=N)N)=N\NC(=N)N [MGBG, 1,1′ [methylethanediylidene]dinitrilodiguanidine]
[1]; iv, 1 mg/kg
  Clobs: 49.6 mL/min/kg
  VSSobs: 38.3 L/kg
[1]; po, 10 mg/kg
  Clobs: 6.68 mL/min/kg
  Vd: 38.3 L/kg
[2]; mice, 3 mg/kg PO BID and 10 mg/kg PO BID
  efficacy at lower doses: observed efficacy
[2]; mice, MGBG PO BID (30 mg/kg; alternative 3, 10, 30 mg/kg)
  edema and hyperalgesia: efficacious in reducing edema and hyperalgesia
[2]; murine carrageenan-induced paw edema and hyperalgesia models
  top efficacious dose: 30 mg/kg PO BID
